Measurements as given in ChEMBL document CHEMBL1155783, “Novel sterically hindered cannabinoid CB1 receptor ligands” (Bioorg Med Chem, 2008).
Active and inactive are the calls of the source. The calls are words filed in the database; no cut-off is given here.

Columns and labels:
Cannabinoid receptor 1 = Cannabinoid receptor 1 (Homo sapiens, UniProt P21554); assay: biochemical; format: cell-based, HEK293
Description: Displacement of [3H]CP-55940 from human recombinant CB1 receptor expressed in HEK cells

Cannabinoid receptor 2 = Cannabinoid receptor 2 (Homo sapiens, UniProt P34972); assay: Displacement of [3H]CP-55940 from human recombinant CB2 receptor expressed in HEK cells; format: cell-based, HEK293
Chain of Cannabinoid receptor 2 (P34972 whole entry): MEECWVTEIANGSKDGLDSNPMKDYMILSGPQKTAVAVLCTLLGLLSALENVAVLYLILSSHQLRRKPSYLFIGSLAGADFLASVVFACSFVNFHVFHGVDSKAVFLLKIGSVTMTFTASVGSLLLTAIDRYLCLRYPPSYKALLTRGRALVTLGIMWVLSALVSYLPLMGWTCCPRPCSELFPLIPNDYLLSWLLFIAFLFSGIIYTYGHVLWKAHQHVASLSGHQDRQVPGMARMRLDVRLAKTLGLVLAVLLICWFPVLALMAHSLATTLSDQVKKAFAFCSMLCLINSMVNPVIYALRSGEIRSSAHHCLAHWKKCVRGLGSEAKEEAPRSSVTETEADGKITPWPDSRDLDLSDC

Homo sapiens = species: Homo sapiens; assay: Selectivity of Ki for human recombinant CB1 receptor over Ki for human recombinant CB2 receptor
[1] = target: Cannabinoid receptor 1 (Mus musculus) (UniProt P47746); assay: Agonist activity at mouse CB1 receptor in N18TG2 cells assessed as inhibition of forskolin-stimulated cAMP formation at 1 uM in presence of 0.1 uM WIN-55212-2
Chain of Cannabinoid receptor 1 (Mus musculus) (P47746 whole entry, looked up): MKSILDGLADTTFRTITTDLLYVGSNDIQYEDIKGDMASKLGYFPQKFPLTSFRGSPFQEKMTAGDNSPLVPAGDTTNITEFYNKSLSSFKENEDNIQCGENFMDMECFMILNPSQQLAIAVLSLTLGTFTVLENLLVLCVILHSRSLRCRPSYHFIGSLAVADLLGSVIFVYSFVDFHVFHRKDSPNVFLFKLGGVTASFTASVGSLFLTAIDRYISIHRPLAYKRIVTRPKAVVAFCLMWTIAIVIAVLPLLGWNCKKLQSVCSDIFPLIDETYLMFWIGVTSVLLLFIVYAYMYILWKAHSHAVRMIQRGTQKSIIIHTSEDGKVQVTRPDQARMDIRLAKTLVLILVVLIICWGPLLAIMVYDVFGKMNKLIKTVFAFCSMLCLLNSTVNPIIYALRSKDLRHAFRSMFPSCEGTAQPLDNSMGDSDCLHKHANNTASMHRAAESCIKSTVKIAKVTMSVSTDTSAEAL

Chain of Cannabinoid receptor 1 (P21554 whole entry): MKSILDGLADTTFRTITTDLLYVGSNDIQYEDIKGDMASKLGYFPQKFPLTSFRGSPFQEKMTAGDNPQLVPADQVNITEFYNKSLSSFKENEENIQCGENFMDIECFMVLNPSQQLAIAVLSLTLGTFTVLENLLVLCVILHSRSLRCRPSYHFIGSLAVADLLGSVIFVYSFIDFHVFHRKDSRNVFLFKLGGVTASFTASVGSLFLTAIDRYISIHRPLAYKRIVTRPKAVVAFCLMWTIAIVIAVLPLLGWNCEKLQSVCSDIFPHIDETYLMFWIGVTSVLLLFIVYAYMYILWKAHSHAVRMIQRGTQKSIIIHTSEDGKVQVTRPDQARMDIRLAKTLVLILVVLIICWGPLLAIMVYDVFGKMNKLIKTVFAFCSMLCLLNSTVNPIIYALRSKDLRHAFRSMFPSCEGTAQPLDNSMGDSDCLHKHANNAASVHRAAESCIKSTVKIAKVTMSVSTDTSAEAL

SMILES	Ki (Cannabinoid receptor 1) [nM]	Ki (Cannabinoid receptor 2) [nM]	Ratio Ki (Homo sapiens)	Activity [1]
O=C(NCCCc1ccccc1)C(c1ccccc1)c1ccccc1	3400	> 7900	–	–
Cc1ccc(C(C(=O)NCCC(c2ccccc2)c2ccccc2)c2ccccc2)cc1 (stereo unspecified)	560	650	–	–
O=C(NCCC(c1ccccc1)c1ccccc1)C(c1ccccc1)c1ccc(Br)cc1 (stereo unspecified)	220	> 7900	–	–
O=C(NCCC(c1ccccc1)c1ccccc1)C(c1ccccc1)c1ccc(O)cc1 (stereo unspecified)	560	1100	–	–
O=C(NCCCc1ccccc1)C(c1ccccc1)c1ccc(Cl)cc1 (stereo unspecified)	2200	2400	–	–
O=C(Cc1ccc(Br)cc1)NCCC(c1ccccc1)c1ccccc1	800	1300	–	–
Nc1ccc(C(C(=O)NCCC(c2ccccc2)c2ccccc2)c2ccccc2)cc1 (stereo unspecified)	900	1200	–	–
CC(C(=O)NCCC(c1ccccc1)c1ccccc1)(c1ccccc1)c1ccccc1	560	290	–	–
O=C(NCCC(c1ccccc1)c1ccccc1)C(Cl)(c1ccccc1)c1ccccc1	280	1400	–	–
O=C(NCCC(c1ccccc1)c1ccccc1)C(c1ccccc1)c1ccccc1	58	7900	140	inactive
O=C(NCCC(c1ccccc1)c1ccccc1)C(c1ccccc1)c1ccc([N+](=O)[O-])cc1 (stereo unspecified)	560	790	–	–
O=C(Cc1ccccc1)NCCC(c1ccccc1)c1ccccc1	560	> 7900	–	–
O=C(NCCC(c1ccccc1)c1ccccc1)C(c1ccccc1)c1ccc(Cl)cc1 (stereo unspecified)	560	> 7900	–	–
O=C(Cc1ccc(Cl)cc1)NCCC(c1ccccc1)c1ccccc1	1600	2400	–	–
COc1ccc(C(C(=O)NCCC(c2ccccc2)c2ccccc2)c2ccccc2)cc1 (stereo unspecified)	560	790	–	–
O=C(NCCCc1ccccc1)C(c1ccccc1)c1ccc(Br)cc1 (stereo unspecified)	1900	1800	–	–
O=C(NCCC(c1ccccc1)c1ccccc1)C(O)(c1ccccc1)c1ccccc1	2200	2300	–	–
